# Biological target: T1, Human Polymorphonuclear Leukocyte Elastase (Homo sapiens, UniProt P08246)
# T1 construct: Crude extract of human polymorphonuclear leukocytes (PMN) containing elastase activity; from tissue; host or cells: human polymorphonuclear leukocytes (crude extract)
# T1 sequence (P08246 30-267): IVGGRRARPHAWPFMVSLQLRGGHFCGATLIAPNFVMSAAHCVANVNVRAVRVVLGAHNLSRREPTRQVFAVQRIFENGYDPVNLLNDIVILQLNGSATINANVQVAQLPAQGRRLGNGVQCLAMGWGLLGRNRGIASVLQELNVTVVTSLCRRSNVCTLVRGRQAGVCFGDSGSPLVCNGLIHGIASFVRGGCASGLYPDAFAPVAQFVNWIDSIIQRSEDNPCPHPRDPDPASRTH
# Assay: Enzyme assay for inhibition of human polymorphonuclear leukocyte elastase via hydrolysis of Boc-AAPAN or Boc-AAPVN
# Type: biochemical
# Details: pH 7.5, second order rate constant for inactivation of the enzyme, expressed to the nearest thousand, read-out: Kobs/[I]
# Method in brief: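 Crude human PMN extract as enzyme source, with 0.2 mM Boc-AAPAN in 0.05M TES buffer pH 7.5. Inhibitors in DMSO were added to substrate before the extract, and rate was followed as ΔOD/min at 410 mµ. Values are kobs/I, the second-order inactivation rate constant (per mole per second).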
row,kinact/KI [M⁻¹ s⁻¹],Compound
1,1.17e+06,CCC[C@@H](NC(=O)N1C(=O)C(CC)(CC)[C@@H]1Oc1ccc(C(=O)N(C)CC(OC(C)=O)C(OC(C)=O)C(OC(C)=O)C(COC(C)=O)OC(C)=O)cc1)c1ccc(C)cc1 (stereo partly drawn) [Compound 157]
2,1.24e+06,CCC[C@@H](NC(=O)N1C(=O)C(CC)(CC)[C@@H]1Oc1ccc(C(=O)NCCN2CCCC2)cc1)c1ccc(C)cc1 [Compound 94]
3,1.52e+06,CCC[C@@H](NC(=O)N1C(=O)C(CC)(CC)[C@@H]1Oc1ccc(C(=O)N(CCN2CCCCC2)Cc2ccccc2)cc1)c1ccc(C)cc1 [Compound 133]
4,2.07e+06,CCC[C@@H](NC(=O)N1C(=O)C(CC)(CC)[C@@H]1Oc1ccc(C(=O)NCCN2CCCCCC2)cc1)c1ccc(C)cc1 [Compound 121]
5,1.19e+06,CCC[C@@H](NC(=O)N1C(=O)C(CC)(CC)[C@@H]1Oc1ccc(C(=O)N(CCN2CCCCC2)Cc2cccnc2)cc1)c1ccc(C)cc1 [Compound 139]
6,135000,CCC[C@@H](NC(=O)N1C(=O)C(CC)(CC)[C@@H]1Oc1ccc(C(=O)OCCN(C)C)cc1)c1ccc(C(=O)N2CCOCC2)cc1 [Compound 278]
7,3.8e+06,"CCC[C@@H](NC(=O)N1C(=O)C(CC)(CC)[C@@H]1Oc1ccc(C(=O)N2CCN(C)CC2)cc1)c1ccc2c(c1)OCO2 [Compound 263, [S-(R*,S*)]-2-[4-[[(4-Methyl)piperazin-1-yl]carbonyl]phenoxy]-((3,3-diethyl-N-[1-(3,4-methylenedioxyphenyl)butyl]-4-oxo-1-azetidinecarboxamide]"
8,1.84e+06,CCC[C@@H](NC(=O)N1C(=O)C(CC)(CC)[C@@H]1Oc1ccc(C(=O)N2C[C@@H](C)O[C@@H](C)C2)cc1)c1ccc(C)cc1 [Compound 200]
9,2.37e+06,CCC[C@@H](NC(=O)N1C(=O)C(CC)(CC)[C@@H]1Oc1ccc(CC(=O)NOCc2ccccc2)cc1)c1ccc(C)cc1 [Compound 70]
10,1.75e+06,CCC[C@@H](NC(=O)N1C(=O)C(CC)(CC)[C@@H]1Oc1ccc(C(=O)N(C)CCN(C)C)cc1)c1cccc(OC)c1 [Compound 291]
11,1.02e+06,CCC[C@@H](NC(=O)N1C(=O)C(CC)(CC)[C@@H]1Oc1ccc(C(=O)N(C)CCN(Cc2ccccc2)Cc2ccccc2)cc1)c1ccc(C)cc1 [Compound 161]
12,3.01e+06,CCC[C@@H](NC(=O)N1C(=O)C(CC)(CC)[C@@H]1Oc1ccc(C(=O)N(C)CCNC2C3CC4CC(C3)CC2C4)cc1)c1ccc(C)cc1 (stereo partly drawn) [Compound 221]
13,1.28e+06,CCC[C@@H](NC(=O)N1C(=O)C(CC)(CC)[C@@H]1Oc1ccc(C(=O)N(C)CCN(CC)CC)cc1)c1ccc(Cl)cc1 [Compound 300]
14,1.46e+06,CCC[C@@H](NC(=O)N1C(=O)C(CC)(CC)[C@@H]1Oc1ccc(C(=O)N(C)CCN(C)Cc2ccccc2)cc1)c1ccc(Cl)cc1 [Compound 302]
15,1.28e+06,CCC[C@@H](NC(=O)N1C(=O)C(CC)(CC)[C@@H]1Oc1ccc(C(=O)N(C)C2CCN(C)CC2)cc1)c1ccc(C)cc1 [Compound 215]
16,968000,"CCCC(NC(=O)N1C(=O)C(CC)(CC)C1Oc1ccc(C(=O)NCCN(C)C)cc1)c1ccc(C)cc1 (stereo not drawn) [Compound 73, 2-[4-[[[2-(dimethylamino)ethyl]amino]carbonyl]phenoxy]-3,3-diethyl-N-[1-(4-methylphenyl)butyl]-4-oxo-1-azetidinecarboxamide]"
17,1e+06,CCC[C@@H](NC(=O)N1C(=O)C(CC)(CC)[C@@H]1Oc1ccc(C(=O)NC2CN(CC)N(CC)C2)cc1)c1ccc(C)cc1 [Compound 118]
18,941000,CCC[C@@H](NC(=O)N1C(=O)C(CC)(CC)[C@@H]1Oc1ccc(C(=O)NCCN2CCCCC2)cc1)c1ccc(C)cc1 [Compound 90]

row,Compound,kinact/KI [M⁻¹ s⁻¹]
1,CCC[C@@H](NC(=O)N1C(=O)C(CC)(CC)[C@@H]1Oc1ccc(C(=O)N(C)C2CN3CCC2CC3)cc1)c1ccc(C)cc1 (stereo partly drawn) [Compound 116],3.48e+06
2,CCC[C@@H](NC(=O)N1C(=O)C(CC)(CC)[C@@H]1Oc1ccc(C(=O)NCCN2CC3CCC(CC3)C2)cc1)c1ccc(C)cc1 [Compound 98],3.04e+06
3,CCC[C@@H](NC(=O)N1C(=O)C(CC)(CC)[C@@H]1Oc1ccc(CC(=O)N(C)CCN(C)C)cc1)c1ccc(O)cc1 [Compound 284],309000

# Reference: patent EP0595557A1, “New substituted azetidinones as anti-inflammatory and antidegenerative agents” (MERCK & CO. INC., priority 1992, dated 1994)
